Measured values from patent US20170291890A1 (Epizyme, Inc., priority 2014, published 2017).
Read-outs that look alike come from different tables or passages of the source.

Target: T1, KDM5A (Homo sapiens, UniProt P29375)
T1 construct: C-terminal FLAG-tagged KDM5A^1-1090 was purchased from BPS Biosciences; FLAG (C); purchased BPS Biosciences
T1 sequence (P29375 1-1090): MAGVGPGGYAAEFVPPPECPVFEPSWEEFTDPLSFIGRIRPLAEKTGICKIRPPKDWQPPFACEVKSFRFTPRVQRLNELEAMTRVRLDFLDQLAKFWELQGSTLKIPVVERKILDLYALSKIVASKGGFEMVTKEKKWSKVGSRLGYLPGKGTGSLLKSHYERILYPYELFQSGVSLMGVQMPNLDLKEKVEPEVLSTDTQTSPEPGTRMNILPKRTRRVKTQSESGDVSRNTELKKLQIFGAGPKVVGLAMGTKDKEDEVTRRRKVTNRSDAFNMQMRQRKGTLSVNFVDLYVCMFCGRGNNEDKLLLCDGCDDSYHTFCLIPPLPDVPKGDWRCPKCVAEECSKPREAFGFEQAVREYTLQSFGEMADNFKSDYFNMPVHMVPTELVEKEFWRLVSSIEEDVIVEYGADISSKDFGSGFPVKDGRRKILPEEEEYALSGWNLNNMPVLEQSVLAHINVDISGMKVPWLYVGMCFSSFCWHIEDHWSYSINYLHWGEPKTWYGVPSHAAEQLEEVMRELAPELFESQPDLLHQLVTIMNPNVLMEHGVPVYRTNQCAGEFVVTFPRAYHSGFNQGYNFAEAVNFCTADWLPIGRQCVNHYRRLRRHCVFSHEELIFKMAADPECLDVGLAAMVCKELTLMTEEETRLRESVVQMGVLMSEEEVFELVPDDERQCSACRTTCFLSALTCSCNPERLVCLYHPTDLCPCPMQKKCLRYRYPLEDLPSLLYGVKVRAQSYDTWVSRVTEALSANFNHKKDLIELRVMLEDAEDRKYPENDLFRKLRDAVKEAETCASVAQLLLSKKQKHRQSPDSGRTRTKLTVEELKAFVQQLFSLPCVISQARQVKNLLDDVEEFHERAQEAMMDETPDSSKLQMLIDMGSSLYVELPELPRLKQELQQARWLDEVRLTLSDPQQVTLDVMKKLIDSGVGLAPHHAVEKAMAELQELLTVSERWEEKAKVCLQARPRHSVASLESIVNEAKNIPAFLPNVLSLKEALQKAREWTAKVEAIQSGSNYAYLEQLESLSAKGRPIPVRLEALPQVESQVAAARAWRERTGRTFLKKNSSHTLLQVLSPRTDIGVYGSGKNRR
Assay: KDM5A Assay (SAMDI mass spectrometry demethylase assay)
Format: biochemical
Settings: C-terminal FLAG-tagged KDM5A 1-1090, read-out: 5A IC50
In short: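 FLAG-tagged KDM5A 1-1090 (20 nM) preincubated 30 min with compound in pH 8.0 HEPES buffer with ascorbate, Fe(II), TCEP, then reacted 150 min at 25 °C with H3K4me3 peptide (250 nM) and 2-oxoglutarate (15 μM). Formic acid-quenched; SAMDI-MS substrate/product AUC conversion; IC50 from dose-response.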

Row | IC50 (class symbols) | IC50 (numeric bound) | SMILES
1 | 100 to 1000 nM | – | Cn1nc(Nc2cnccc2C(=O)O)cc1-c1ccccc1 [Compound 5]
2 | 1000 to 10000 nM | – | CCc1c(Nc2cnccc2C(=O)O)cnn1-c1ccccc1 [Compound 81, 3-((5-ethyl-1-phenyl-1H-pyrazol-4-yl)amino)isonicotinic acid]
3 | 1000 to 10000 nM | – | NC1CCC(n2nc(Nc3cnccc3C(=O)O)cc2-c2cccc(Cl)c2)CC1 (centres unmarked) [Compound 87, 3-((1-(4-aminocyclohexyl)-5-(3-chlorophenyl)-1H-pyrazol-3-yl)amino)isonicotinic acid]
4 | 1000 to 10000 nM | – | Cc1c(Nc2cnccc2C(=O)O)cnn1C1CCN(C2CN(C)C2)CC1 [Compound 92, 3-(5-methyl-1-(1-(1-methylazetidin-3-yl)piperidin-4-yl)-1H-pyrazol-4-ylamino)isonicotinic acid]
5 | 1000 to 10000 nM | – | CN1CCC(n2ncc(Nc3cnccc3C(=O)O)c2-c2ccccc2)CC1 [Compound 126, 3-(1-(1-methylpiperidin-4-yl)-5-phenyl-1H-pyrazol-4-ylamino) isonicotinic acid]
6 | 1000 to 10000 nM | – | Cc1c(Nc2cnccc2C(=O)O)cnn1C1CCN(CC2CC2)CC1 [Compound 90, 3-(1-(1-(cyclopropylmethyl)piperidin-4-yl)-5-methyl-1H-pyrazol-4-ylamino) isonicotinic acid]
7 | 1000 to 10000 nM | – | NC1CCC(n2nc(-c3cccc(Cl)c3)cc2Nc2cnccc2C(=O)O)CC1 (centres unmarked) [Compound 85, 3-((1-(4-aminocyclohexyl)-3-(3-chlorophenyl)-1H-pyrazol-5-yl)amino)isonicotinic acid]
8 | 100 to 1000 nM | – | Cc1nn(C2CCN(C3CN(C)C3)CC2)cc1Nc1cnccc1C(=O)O [Compound 91, 3-(3-methyl-1-(1-(1-methylazetidin-3-yl)piperidin-4-yl)-1H-pyrazol-4-ylamino)isonicotinic acid]
9 | – | > 100000 nM | Cn1ncc(-c2cccnc2)c1Nc1cnccc1C(=O)O [Compound 4]

Second part, the molecule before the results:

Row | SMILES | IC50 (class symbols) | IC50 (numeric bound)
10 | COC(=O)c1ccncc1Nc1cnn(C2CCN(C3CCC3)CC2)c1C [Compound 95, methyl 3-((1-(1-cyclobutylpiperidin-4-yl)-5-methyl-1H-pyrazol-4-yl)amino)isonicotinate] | 10000 to 100000 nM | –
11 | O=C(O)c1ccncc1Nc1cc(-c2cccc(Cl)c2)n(C2CCC3(CC2)OCCO3)n1 [Compound 86, 3-((5-(3-chlorophenyl)-1-(1,4-dioxaspiro[4.5]decan-8-yl)-1H-pyrazol-3-yl)amino)isonicotinic acid] | 1000 to 10000 nM | –
12 | Cc1nn([C@H]2CC[C@@H](N)CC2)cc1Nc1cnccc1C(=O)O [Compound 80, 3-((1-((cis)-4-aminocyclohexyl)-3-methyl-1H-pyrazol-4-yl)amino)isonicotinic acid] | 1 to 100 nM | –
13 | Cc1nn(C2CCN(CC3CC3)CC2)cc1Nc1cnccc1C(=O)O [Compound 89, 3-(1-(1-(cyclopropylmethyl)piperidin-4-yl)-3-methyl-1H-pyrazol-4-ylamino)isonicotinic acid] | 100 to 1000 nM | –
14 | Cc1ccc(-n2cc(Nc3cnccc3C(=O)O)c(C)n2)cc1 [Compound 82] | 1 to 100 nM | –
15 | O=C(O)c1ccncc1Nc1nn(-c2ccccc2)cc1-c1ccncc1 [Compound 88, 3-((1-phenyl-4-(pyridin-4-yl)-1H-pyrazol-3-yl)amino) isonicotinic acid] | 100 to 1000 nM | –
16 | Cc1nn(C2CCN(C3CCC3)CC2)cc1Nc1cnccc1C(=O)O [Compound 94, 3-(1-(1-cyclobutylpiperidin-4-yl)-3-methyl-1H-pyrazol-4-ylamino)isonicotinic acid] | 100 to 1000 nM | –
17 | COC(=O)c1ccncc1Nc1cn(C2CCN(C3CCC3)CC2)nc1C [Compound 93, methyl 3-((1-(1-cyclobutylpiperidin-4-yl)-3-methyl-1H-pyrazol-4-yl)amino)isonicotinate] | 10000 to 100000 nM | –
